Values quoted from earlier work, collected in paper PMC10842190 (ACS sensors, 2023).

Experiments:
[1] = system: damaged collagen triple helices

Row | Compound | Annealing to damaged collagen triple helices [1] | Toxicity to human cells (human cells)
1 | (Gly-Ser)2-Gly-(Hyp-flp-Gly)7 | cannot anneal | –
2 | O=C(O)[C@@H]1C[C@H](F)CN1 [H-flp-OH, (2S,4S)-4-fluoroproline] | – | not toxic
3 | (Gly-Ser)2-Gly-(flp-Hyp-Gly)7 | can anneal | –
